Results taken from patent US10251408B2, “Catechin function enhancement method” (KYUSHU UNIVERSITY, NATIONAL UNIVERSITY CORPORATION, priority 2014, dated 2019).

Key:
[1] = test system: Human multiple myeloma cell line U266; experiment: Cancer cell apoptosis induction, Annexin V/PI flow cytometry; type: cell-based; settings: EGCG and eriodictyol 5 μM each, 96 hours, FIG. 1
Experimental: Human multiple myeloma cell line U266 was subcultured and maintained in RPMI 1640 medium supplemented with 10% fetal bovine serum (FCS) under conditions of 37° C. and water vapor-saturated 5% CO2. The cells were maintained in the logarithmic growth phase. The RPMI 1640 medium used for culture was prepared as follows: per liter of ultrapure water, RPMI 1640 medium (10.4 g), HEPES (2.38 g), injectable penicillin G potassium (100,000 units), streptomycin sulfate injectable (100 mg) and NaHCO3 (2.0 g) were suspended and then filter-sterilized.
Then, the RPMI 1640 medium was supplemented with FCS and used for cell culture. To examine the apoptosis induction effect on human multiple myeloma cell line U266 produced upon combination of EGCG and eriodictyol, double staining was performed with Annexin V and PI. For use as a propidium iodide (PI) stain solution, PI (Sigma) was suspended in PBS at a concentration of 50 μg/mL. […]
Then, the fully suspended cell culture was centrifuged at 300×g for 5 minutes to remove the supernatant, and then suspended with the Annexin V binding buffer, counted with a hemacytometer, centrifuged again at 300×g for 5 minutes and then suspended with the Annexin V binding buffer. […] After compensation, the Annexin V Alexa Fluor 488 conjugate was measured at FL 1 and cells determined to be positive were regarded as apoptotic cells. […]

[2] = test system: high-fat high-sucrose diet-fed obese model mice; experiment: High-fat high-sucrose diet-fed mice: body weight, serum total cholesterol, LDL; type: in vivo, mouse; settings: C57BL/6J mice, Yabukita 0.2% and/or eriodictyol 0.45 g/kg diet, 8 weeks, FIG. 5
Source text: Male C57BL/6J mice at 12 weeks of age were preliminarily kept for 1 week and then divided into 5 groups such that the average body weight was equal in all groups, i.e., a control (AIN-93G-based diet) group, a HF/HS (high-fat high-sucrose diet) group, a Yabukita (0.2%) (HF/HS+Yabukita) group, an eriodictyol (HF/HS+eriodictyol) group, and a Yabukita+eriodictyol (HF/HS+Yabukita+eriodictyol) group. A feed supplemented with Yabukita (0.2%) and eriodictyol (0.45 g/kg diet) was given to the mice. The feed was given in an amount of 4 g/day and the mice were kept for 8 weeks under ad libitum drinking conditions. After being fasted for 16 hours, the mice were sacrificed by abdominal aortic puncture under isoflurane anesthesia. The collected blood samples were allowed to stand at 37° C. for 2 hours to cause coagulation and then centrifuged at 4° C. at 2000×g for 15 minutes to collect serum fractions. The values of serum total cholesterol and LDL were measured. […] Yabukita and eriodictyol were examined for their effect on obesity in high-fat high-sucrose diet-fed obese model mice. Male C57BL/6J mice at 12 weeks of age were preliminarily kept for 1 week and then divided into the respective groups such that the average body weight was equal in all groups. Each feed was given in an amount of 4 g/day and the mice were kept for 8 weeks under ad libitum drinking conditions. After being measured for their body weight, the mice were fasted for 16 hours and then sacrificed by abdominal aortic puncture under isoflurane anesthesia. Blood samples collected by puncture were allowed to stand at 37° C. for 2 hours to cause coagulation and then centrifuged at 4° C. at 2000×g for 15 minutes to collect serum fractions. The values of serum total cholesterol and LDL were measured.

[3] = test system: caspase-3; experiment: Caspase-3 activation in MPC-11 tumor sections (immunohistological staining); type: in vivo, mouse; settings: MPC-11-implanted balb/c mice; EGCG 15 mg/kg i.p. and eriodictyol 15 mg/kg i.p.; after 6 hours; FIG. 13
Experimental: After female balb/c mice at 5 weeks of age were preliminarily kept for 2 weeks, a cell suspension of mouse multiple myeloma cell line MPC-11 suspended at 5×10^6 cells/mL in RPMI medium was implanted by subcutaneous injection in a volume of 200 μL into the right dorsal region of each mouse. At 11 days after implantation, the mice were administered […] with EGCG (15 mg/kg i.p.) and eriodictyol (15 mg/kg i.p.) and then sacrificed after 6 hours. Tumors were excised and tissue sections were prepared therefrom, followed by immunohistological staining to determine the number of cells where caspase-3 was activated. To examine the effect of eriodictyol on EGCG-induced activation of caspase-3 indicative of 67LR-dependent cancer cell death induction mechanism activity, female balb/c mice at 5 weeks of age were implanted with mouse multiple myeloma cell line MPC-11 by subcutaneous injection. At 11 days after implantation, the mice were administered with EGCG (15 mg/kg i.p.) and eriodictyol (15 mg/kg i.p.) and then sacrificed after 6 hours. Tissue sections were prepared from the excised tumors and evaluated for the activation state of caspase-3.

O=C1C[C@@H](c2ccc(O)c(O)c2)Oc2cc(O)cc(O)c21 [eriodictyol]
effect on the cancer cell apoptosis induction effect of EGCG (Annexin V positive cells) [1]: enhance the apoptosis induction effect of EGCG
high-fat high-sucrose diet-induced increase in body weight [2]: no effect
high-fat high-sucrose diet-induced increase in serum cholesterol value [2]: no effect
high-fat high-sucrose diet-induced increase in LDL value ([2]; serum): no effect
effect on EGCG-induced caspase-3 activation in tumors [3]: remarkably enhance the ability of EGCG to induce caspase-3 activation
